Here are results for one compound from article PMC3792051, “Polyenylpyrrole Derivatives Inhibit NLRP3 Inflammasome Activation and Inflammatory Mediator Expression by Reducing Reactive Oxygen Species Production and Mitogen-Activated Protein Kinase Activation” (PLoS ONE, 2013).

Assay [1] relates to RAW-Blue cells (RAW 264.7 with NF-κB reporter gene). Description: NF-κB reporter assay (SEAP, QUANTI-Blue). The class given is cell-based, murine. The conditions noted are these: 2.5-40 µM 30 min, LPS 1 µg/ml 24 h. The procedure: RAW-Blue™ cells, RAW 264.7 macrophages stably expressing the gene for secreted embryonic alkaline phosphatase (SEAP) inducible by NF-κB, were seeded in 60 mm dishes at a density of 5 × 10^5 cells/ml (1 ml) and grown overnight in a 5% CO2 incubator at 37 °C. They were then pretreated with vehicle or compound 1h for 30 min, then LPS (1 µg/ml) was added and incubation continued for 24 h. The medium was then harvested and 20 µl aliquots mixed with 200 µl of QUANTI-Blue™ medium (InvivoGen) in 96-well plates and incubated at 37 °C for 15 min, then SEAP activity was assessed by measuring the optical density at 655 nm using an ELISA reader.
Following LPS stimulation, IκB in the complex is phosphorylated by IκB kinase (IKK), ubiquitinated, and rapidly degraded in proteasomes, thus releasing NF-κB [30].
Figure 6 Effect of compound 1h on NF-κB activation in LPS-activated macrophages. (A) RAW 264.7 macrophages or (B) J774A.1 macrophages (both 5 × 10^5/ml; 1 ml) were incubated for 30 min with 10-40 µM compound 1h or DMSO, then LPS (1 µg/ml) was added and incubation continued for 20 min, then levels of phosphorylated and total IKK-α and IκB-α were measured by Western blotting. (C) RAW 264.7 macrophages or (D) J774A.1 macrophages (both 5 × 10^5/ml; 1 ml) were treated as in A and B, then nuclear translocation of NF-κB was analyzed by ELISA. […]

Assay [2] relates to NLRP3 inflammasome in LPS+ATP-activated J774A.1 macrophages. Description: NLRP3 inflammasome activation (IL-1β ELISA, caspase-1 p10 Western blot). The class given is cell-based, mouse. Conditions: then ATP 5 mM 30 min. The protocol: The effects of the test samples on IL-1β, TNF-α, and IL-6 production were measured by ELISA according to the manufacturer’s instructions. In brief, 50 µl of biotinylated antibody reagent and 50 µl of supernatant were added to a stripwell plate precoated with anti-mouse IL-1β, TNF-α, or IL-6 antibodies, which was then incubated at room temperature for 2 h. After washing the plate three times with washing buffer, 100 µl of diluted streptavidin-HRP concentrate was added to each well and the plate incubated at room temperature for 30 min. The washing process was repeated, then 100 µl of a premixed tetramethylbenzidine substrate solution was added to each well and the plate incubated at room temperature in the dark for 30 min. After addition of 100 µl of stop solution to each well, the absorbance at 450 nm of each well was measured on a microplate reader.
Cells were washed twice with ice-cold phosphate-buffered saline (PBS) and lysed on ice for 5 min with lysis buffer (20 mM Tris-HCl, pH 7.5, 150 mM NaCl, 1 mM Na 2EDTA, 1 mM EGTA, 1% Triton X-100, 2.5 mM sodium pyrophosphate, 1 mM beta-glycerophosphate, 1 mM Na 3VO4, 1 µg/ml of leupeptin, 1 mM PMSF, protease inhibitor cocktail). The lysate was then centrifuged at 12,000 x g at 4 °C for 10 min and the pellet discarded. Proteins in the supernatant were separated by SDS-PAGE and electrotransferred to a PVDF membrane (EMD Millipore Corporation), which was then blocked by incubation for 1 h at room temperature in blocking buffer [(5% nonfat milk in PBS containing 0.1% Tween 20 (PBST)], then incubated for 2 h at room temperature with the primary antibody diluted in blocking buffer. After three washes in PBST, the membrane was incubated for 1 h at room temperature with an appropriate HRP-conjugated secondary antibody diluted in blocking buffer and developed using an enhanced chemiluminescence Western blot detection system (EMD Millipore Corporation).
ATP is known to activate the NLRP3 inflammasome in LPS-primed macrophages, leading to caspase-1 activation and IL-1β secretion. To examine whether compound 1h could affect NLRP3 inflammasome activation, the mouse macrophage cell line J774A.1 was used (RAW 264.7 macrophages are not suitable for studying the NLRP3 inflammasome). […]
Figure 4 Effect of compound 1h on NLRP3 inflammasome activation in LPS+ATP-activated J774A.1 macrophages. (A) J774A.1 macrophages (1 × 10^6/ml; 1 ml) or (B) peritoneal macrophages (1 × 10^5/ml; 1 ml) were incubated with 10-40 µM compound 1h or DMSO for 30 min, then LPS (1 µg/ml) was added and incubation continued for 5.5 h, then the cells were stimulated with ATP (5 mM) for an additional 30 min, then IL-1β in the culture medium was measured by ELISA (A, upper panel; B) and levels of active caspase-1 (p10) (A, lower panel) measured by Western blotting. In (C) and (D), J774A.1 macrophages (1 × 10^6/ml; 1ml) were incubated with LPS (1 µg/ml) for 5.5 h, then with 10-40 µM compound 1h or DMSO for 30 min in the continued presence of LPS, followed by stimulation with ATP (5 mM) for an additional 30 min, then IL-1β levels (C, upper panel) and IL-6 levels (D) in the culture medium were measured by ELISA and levels of active caspase-1 (p10) were measured by Western blotting (C, lower panel). […] In (E), J774A.1 macrophages (1 × 10^6/ml; 1 ml) were incubated for 30 min with DMSO or 1-40 µM compound 1h, then LPS (1 µg/ml) was added and incubation continued for 6 h, then expression of NLRP3 and proIL-1β was measured by Western blotting. […]
Background: In an ELISA, binding on a coated surface is turned into a signal by an enzyme label.

Where [3] appears, read: J774A.1, LPS 5.5 h first, then compound 10-40 µM 30 min.
The mark [4] stands for this setting: J774A.1, compound 10-40 µM 30 min before LPS 5.5 h.

Take `O=c1cc(O)cc(/C=C/C=C/C=C/C=C/c2[nH]ccc2Cl)o1` [compound 1h]: in assay [1], the “NF-κB transcriptional activity (SEAP reporter)” value is reported as “reduced”. Also, in assay [2] (setting [3]), the “Caspase-1 activation (p10)” value was “not caspase-1 activation”, the IL-1β secretion entry was “inhibited the LPS-induced increase in IL-1β secretion” and the IL-6 secretion entry was “had no significant effect on IL-6 secretion”. In addition, in assay [2] (setting [4]), the “Generation of active caspase-1 (p10)” value is “significantly inhibited” and the IL-1β secretion entry is reported as “significantly inhibited IL-1β secretion”.
